Substitutions are numbered along the chain they refer to.

The nature of data set [1]: Metabolic stability in liver microsomes. It counts as in vitro ADME. The note with it: 1 μM, calculated from half-life. The protocol:
The metabolic stability of BAY 1024767 was determined by incubating the compound with suspensions of liver microsomes from different species at a concentration of 1 μM. The intrinsic clearance was calculated from the half-life of the compound. Together with additional parameters like microsomal protein content, species-specific liver weight and liver blood flow, the hepatic in vivo blood clearance (CLH) was calculated.

The next data set concerns the target AR H874Y (Homo sapiens, UniProt P10275, H875Y). Put plainly: cell-based. The conditions noted are these: IC50 (antagonistic activity).
For a further data set, the target named is T1, AR wild-type (Homo sapiens, UniProt P10275).
T1 sequence (P10275 1-920): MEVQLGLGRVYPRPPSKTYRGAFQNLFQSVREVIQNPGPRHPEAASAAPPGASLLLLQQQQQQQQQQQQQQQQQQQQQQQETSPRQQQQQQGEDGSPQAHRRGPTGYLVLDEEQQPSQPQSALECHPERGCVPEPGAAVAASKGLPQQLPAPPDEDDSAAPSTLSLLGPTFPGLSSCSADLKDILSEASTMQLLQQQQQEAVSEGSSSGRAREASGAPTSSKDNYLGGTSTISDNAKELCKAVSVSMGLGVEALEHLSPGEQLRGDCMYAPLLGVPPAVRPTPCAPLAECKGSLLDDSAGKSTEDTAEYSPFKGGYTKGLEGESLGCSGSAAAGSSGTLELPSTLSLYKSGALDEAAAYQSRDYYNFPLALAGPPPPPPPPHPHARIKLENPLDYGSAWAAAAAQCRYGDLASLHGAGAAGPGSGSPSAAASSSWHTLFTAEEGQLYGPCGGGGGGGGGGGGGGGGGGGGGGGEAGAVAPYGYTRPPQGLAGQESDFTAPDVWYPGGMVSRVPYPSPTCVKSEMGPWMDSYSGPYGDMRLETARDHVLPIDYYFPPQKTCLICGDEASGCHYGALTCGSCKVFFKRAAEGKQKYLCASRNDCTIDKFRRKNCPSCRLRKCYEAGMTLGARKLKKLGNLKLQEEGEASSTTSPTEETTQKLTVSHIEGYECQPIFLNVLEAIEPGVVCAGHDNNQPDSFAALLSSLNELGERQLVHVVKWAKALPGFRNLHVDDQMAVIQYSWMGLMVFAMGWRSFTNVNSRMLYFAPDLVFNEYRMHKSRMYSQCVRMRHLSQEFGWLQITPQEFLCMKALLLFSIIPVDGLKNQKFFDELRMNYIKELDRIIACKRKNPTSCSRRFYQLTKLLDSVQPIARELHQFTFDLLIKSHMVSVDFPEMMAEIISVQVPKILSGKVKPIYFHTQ
Put plainly: cell-based. The note with it: IC50 (antagonistic activity).

In a further data set the target is T2, AR F876L (Homo sapiens, UniProt P10275, F877L).
T2 sequence (P10275 1-920 F877L): T1 sequence (P10275 1-920) with F877L
Put plainly: cell-based. The note with it: IC50 (antagonistic activity).

The next data set has as its target AR M895T (Homo sapiens, UniProt P10275, M895T/M896T). The data set can be described thus: cell-based. The conditions noted are these: IC50 (antagonistic activity).

Chain of AR M895T (P10275 whole entry M895T/M896T): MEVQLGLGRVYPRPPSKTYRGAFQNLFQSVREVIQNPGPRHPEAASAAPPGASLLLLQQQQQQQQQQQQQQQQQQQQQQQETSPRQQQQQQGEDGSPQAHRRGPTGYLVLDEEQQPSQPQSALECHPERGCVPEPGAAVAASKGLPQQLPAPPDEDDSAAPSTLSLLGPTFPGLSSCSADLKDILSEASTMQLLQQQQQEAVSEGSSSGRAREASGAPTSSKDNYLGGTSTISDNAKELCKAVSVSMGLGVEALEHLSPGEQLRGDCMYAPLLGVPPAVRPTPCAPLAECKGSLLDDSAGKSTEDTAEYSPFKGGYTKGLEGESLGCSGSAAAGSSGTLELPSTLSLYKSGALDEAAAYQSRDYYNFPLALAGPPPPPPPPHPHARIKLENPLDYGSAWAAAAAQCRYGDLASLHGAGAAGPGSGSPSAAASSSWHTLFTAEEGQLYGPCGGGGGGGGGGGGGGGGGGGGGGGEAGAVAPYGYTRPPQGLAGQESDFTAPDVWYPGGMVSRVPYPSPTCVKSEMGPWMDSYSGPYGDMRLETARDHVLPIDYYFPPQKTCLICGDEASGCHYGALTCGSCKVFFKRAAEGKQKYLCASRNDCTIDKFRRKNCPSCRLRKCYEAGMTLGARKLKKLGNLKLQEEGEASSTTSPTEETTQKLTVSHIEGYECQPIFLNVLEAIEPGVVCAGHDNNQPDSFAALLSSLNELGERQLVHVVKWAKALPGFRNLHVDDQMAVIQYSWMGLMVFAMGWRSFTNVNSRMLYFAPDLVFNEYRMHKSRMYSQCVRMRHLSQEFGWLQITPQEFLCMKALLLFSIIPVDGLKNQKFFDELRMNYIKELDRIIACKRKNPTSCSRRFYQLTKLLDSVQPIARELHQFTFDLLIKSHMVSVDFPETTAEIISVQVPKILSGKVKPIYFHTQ
Chain of AR H874Y (P10275 whole entry H875Y): as the sequence (P10275 whole entry M895T/M896T) above, with H875Y, T895M, T896M counted along it

`CC(C)(O)COc1ccc(CN2C(=S)N(c3ccc(C#N)c(C(F)(F)F)c3)C(=O)C2(C)C)cn1` [BAY 1024767]: the CLH was 4.5 mL/min/kg in data set [1] (dog liver microsomes); 5.83 mL/min/kg in data set [1] (human liver microsomes); 11.7 mL/min/kg in data set [1] (monkey liver microsomes); 3.17 mL/min/kg in data set [1] (mouse liver microsomes); 4.67 mL/min/kg in data set [1] (rat liver microsomes). Also, the IC50 (usually the midpoint of a concentration-inhibition curve) is 31 nM against AR H874Y (R1881 0.1 nM); 160 nM against AR H874Y (R1881 1 nM); 46 nM against AR wild-type (R1881 0.1 nM); 260 nM at AR wild-type (R1881 1 nM); 1600 nM on AR wild-type (R1881 10 nM); 106 nM against AR F876L (R1881 0.1 nM). Moreover, the IC50 against AR F876L (R1881 1 nM) was 293 nM; against AR F876L (R1881 10 nM), 2060 nM; on AR M895T (R1881 1 nM) it was 37 nM; on AR M895T (R1881 10 nM), 220 nM.

The record behind these values is paper PMC4868737, “BAY 1024767 blocks androgen receptor mutants found in castration-resistant prostate cancer patients” (Oncotarget, 2016).
